This passage reports TD50 and carcinogen call results from PubChem BioAssay AID1745844 (Carcinogenic Potency Database (CPDB), 2022).

Where “and” joins values, the source holds several entries; their conditions need not be identical. Identical values can stand only once. Calls of active or inactive are those of the source. No rule for the calls is given here.

This data set concerns rodent lifetime carcinogenesis bioassay, tumor incidence TD50. The data set is described as follows: chronic cancer bioassays in animals – CPDB, compiled studies (AID 1745844).

Take `NNC(=O)c1ccncc1`: the TD50 – broadly, the 50% point of the dose-response relation for the toxic effect studied – runs as follows: (hamster, strain Syrian Golden, females, in drinking water, site: forestomach, lesion: papilloma, dosed 121 weeks, study length 121 weeks) 575 mg/kg/day (inactive); (mouse, strain A, males, by gavage, site: liver, lesion: carcinoma, dosed 79 weeks, study length 79 weeks) 159 mg/kg/day; (mouse, strain A, males, by gavage, site: lung, lesion: carcinoma, dosed 79 weeks, study length 79 weeks) 206 mg/kg/day; (mouse, strain A, males, by gavage, site: several sites, sites named in the paper, lesion: carcinoma, dosed 79 weeks, study length 79 weeks) 219 mg/kg/day; (mouse, strain AKR, females, in drinking water, site: lung, lesion: one or several types, types not named, dosed 70 weeks, study length 70 weeks) 89.6 mg/kg/day (inactive); (mouse, strain AKR, males, in drinking water, site: lung, lesion: one or several types, types not named, dosed 59 weeks, study length 59 weeks) 202 mg/kg/day (inactive). Besides, the TD50 was 755 mg/kg/day (mouse, strain C3H (MTV+), females, in drinking water, site: lung, lesion: adenoma, dosed 72 weeks, study length 72 weeks); 219 mg/kg/day (mouse, strain C3H (MTV+), males, in drinking water, site: lung, lesion: adenoma, dosed 72 weeks, study length 72 weeks); 187 mg/kg/day (inactive) (mouse, strain CBA/Cb/Se, females, by gavage, site: liver, lesion: hepatoma, dosed 36 weeks, study length 84 weeks); 11.2 mg/kg/day (mouse, strain CBA/Cb/Se, females, by gavage, site: lung, lesion: several types, types named in the paper, dosed 36 weeks, study length 84 weeks); 165 mg/kg/day (inactive) (mouse, strain CBA/Cb/Se, males, by gavage, site: liver, lesion: hepatoma, dosed 36 weeks, study length 74 weeks); 12.2 mg/kg/day (mouse, strain CBA/Cb/Se, males, by gavage, site: lung, lesion: several types, types named in the paper, dosed 36 weeks, study length 74 weeks). In addition, the TD50 is, setting by setting: (mouse, strain Not specified, both sexes, by gavage, site: any site (literature study), lesion: several types, types named in the paper, dosed 52 weeks, study length 52 weeks) 14.1 mg/kg/day; (mouse, strain Not specified, both sexes, by gavage, site: lung, lesion: adenoma, dosed 52 weeks, study length 52 weeks) 19.3 mg/kg/day; (mouse, strain Not specified, both sexes, by gavage, site: mammary gland, lesion: adenocarcinoma, dosed 52 weeks, study length 52 weeks) 80.9 mg/kg/day; (mouse, strain Swiss albino, females, in drinking water, site: lung, lesion: adenocarcinoma, dosed 80 weeks, study length 80 weeks) 435 mg/kg/day; (mouse, strain Swiss albino, females, in drinking water, site: lung, lesion: adenoma, dosed 80 weeks, study length 80 weeks) 189 mg/kg/day; (mouse, strain Swiss albino, females, in drinking water, site: lung, lesion: adenoma, dosed 101 weeks, study length 106 weeks) 386 mg/kg/day. The TD50 by setting is: (mouse, strain Swiss albino, females, in drinking water, site: lung, lesion: several types, types named in the paper, dosed 80 weeks, study length 80 weeks) 153 mg/kg/day; (mouse, strain Swiss albino, males, in drinking water, site: lung, lesion: adenoma, dosed 80 weeks, study length 80 weeks) 124 mg/kg/day; (mouse, strain Swiss albino, males, in drinking water, site: lung, lesion: adenoma, dosed 86 weeks, study length 87 weeks) 104 mg/kg/day; (mouse, strain Swiss, both sexes, by gavage, site: lung, lesion: adenocarcinoma, dosed 95 weeks, study length 95 weeks) 28.8 mg/kg/day; (mouse, strain Swiss, both sexes, by gavage, site: lung, lesion: one or several types, types not named, dosed 97 weeks, study length 97 weeks) 24.5 mg/kg/day; (mouse, strain Swiss, females, by gavage, site: liver, lesion: carcinoma, dosed 81 weeks, study length 83 weeks) 88.6 mg/kg/day. For the same compound, the TD50 (mouse, strain Swiss, females, by gavage, site: lung, lesion: carcinoma, dosed 81 weeks, study length 83 weeks) turned out to be 88.6 mg/kg/day; the TD50 (mouse, strain Swiss, females, by gavage, site: lung, lesion: carcinoma, dosed 83 weeks, study length 83 weeks) stood at 53.1 mg/kg/day; the TD50 (mouse, strain Swiss, females, by gavage, site: several sites, sites named in the paper, lesion: carcinoma, dosed 81 weeks, study length 83 weeks) was 39.9 mg/kg/day; the TD50 (mouse, strain Swiss, females, by gavage, site: several sites, sites named in the paper, lesion: carcinoma, dosed 83 weeks, study length 83 weeks) is 53.1 mg/kg/day; the TD50 (mouse, strain Swiss, males, by gavage, site: liver, lesion: carcinoma, dosed 79 weeks, study length 79 weeks) is 88.8 mg/kg/day and 71.3 mg/kg/day; the TD50 (mouse, strain Swiss, males, by gavage, site: liver, lesion: carcinoma, dosed 85 weeks, study length 85 weeks) stood at 211 mg/kg/day. For the same compound, the TD50 was 41.1 mg/kg/day and 39.2 mg/kg/day (mouse, strain Swiss, males, by gavage, site: lung, lesion: carcinoma, dosed 79 weeks, study length 79 weeks); 28.9 mg/kg/day (mouse, strain Swiss, males, by gavage, site: lung, lesion: carcinoma, dosed 85 weeks, study length 85 weeks); 25.7 mg/kg/day and 21.2 mg/kg/day (mouse, strain Swiss, males, by gavage, site: several sites, sites named in the paper, lesion: carcinoma, dosed 79 weeks, study length 79 weeks); 24 mg/kg/day (mouse, strain Swiss, males, by gavage, site: several sites, sites named in the paper, lesion: carcinoma, dosed 85 weeks, study length 85 weeks); 120 mg/kg/day (rat, strain Cb/Sc, females, in drinking water, site: mammary gland, lesion: fibroadenoma, dosed 48 weeks, study length 64 weeks); 199 mg/kg/day (rat, strain Cb/Sc, males, in drinking water, site: liver, lesion: one or several types, types not named, dosed 48 weeks, study length 84 weeks). Moreover, the TD50 (rat, strain Cb/Sc, males, in drinking water, site: lung, lesion: several types, types named in the paper, dosed 48 weeks, study length 84 weeks) is 1070 mg/kg/day. The carcinogen call is, setting by setting: (hamster, strain Syrian Golden, males, in drinking water, site: liver, lesion: hemangioma, dosed 130 weeks, study length 130 weeks) “negative (inactive)”; (mouse, strain AKR, males, in drinking water, site: liver, lesion: hemangioma, dosed 59 weeks, study length 59 weeks) “negative (inactive)”; (mouse, strain Swiss albino, females, in drinking water, site: liver, lesion: hemangioma, dosed 80 weeks, study length 80 weeks) “negative (inactive)”; (mouse, strain Swiss albino, females, in drinking water, site: liver, lesion: hemangioma, dosed 101 weeks, study length 106 weeks) “negative (inactive)”; (mouse, strain Swiss albino, males, in drinking water, site: liver, lesion: hemangioma, dosed 80 weeks, study length 80 weeks) “negative (inactive)”.

For `Cc1ccc2c(-c3ccccc3)nc(=O)n(C(C)C)c2c1`, the carcinogen call is, setting by setting: (mouse, strain Charles River CD1, females, in feed, site: liver, lesion: hemangioendothelial sarcoma, dosed 86 weeks, study length 86 weeks) “negative (inactive)”; (mouse, strain Charles River CD1, females, in feed, site: liver, lesion: hepatocellular carcinoma, dosed 86 weeks, study length 86 weeks) “negative (inactive)”; (mouse, strain Charles River CD1, females, in feed, site: lung, lesion: alveolar/bronchiolar adenoma, dosed 86 weeks, study length 86 weeks) “negative (inactive)”; (mouse, strain Charles River CD1, females, in feed, site: lung, lesion: alveolar/bronchiolar carcinoma, dosed 86 weeks, study length 86 weeks) “negative (inactive)”; (mouse, strain Charles River CD1, males, in feed, site: lung, lesion: alveolar/bronchiolar carcinoma, dosed 86 weeks, study length 86 weeks) “negative (inactive)”. Also, the TD50 is 48700 mg/kg/day (inactive) (mouse, strain Charles River CD1, females, in feed, site: liver, lesion: hemangioma, dosed 86 weeks, study length 86 weeks); 14000 mg/kg/day (inactive) (mouse, strain Charles River CD1, males, in feed, site: liver, lesion: hemangioma, dosed 86 weeks, study length 86 weeks); 4350 mg/kg/day (inactive) (mouse, strain Charles River CD1, males, in feed, site: liver, lesion: hepatocellular carcinoma, dosed 86 weeks, study length 86 weeks); 5450 mg/kg/day (inactive) (mouse, strain Charles River CD1, males, in feed, site: lung, lesion: alveolar/bronchiolar adenoma, dosed 86 weeks, study length 86 weeks).

For the compound `CC(O)CN(CC(C)O)CC(C)O` (stereo not drawn), the carcinogen call (rat, strain Wistar, males, in feed, site: liver, lesion: one or several types, types not named, dosed 102 weeks, study length 102 weeks) was “negative (inactive)”.

In the case of `Cc1ncc([N+](=O)[O-])n1C`, the TD50 by setting is: (rat, strain Sprague-Dawley, females, in feed, site: any site (literature study), lesion: several types, types named in the paper, dosed 46 weeks, study length 66 weeks) 17 mg/kg/day; (rat, strain Sprague-Dawley, females, in feed, site: mammary gland, lesion: fibroadenoma, dosed 46 weeks, study length 66 weeks) 17 mg/kg/day.

On to `COS(C)(=O)=O`, for which the TD50 is, setting by setting: (mouse, strain RF, males, in drinking water, site: liver, lesion: one or several types, types not named, dosed 104 weeks, study length 104 weeks) 3980 mg/kg/day (inactive); (mouse, strain RF, males, in drinking water, site: lung, lesion: adenoma, dosed 104 weeks, study length 104 weeks) 31.8 mg/kg/day; (mouse, strain RF, males, in drinking water, site: thymus gland, lesion: lymphoma, dosed 104 weeks, study length 104 weeks) 185 mg/kg/day.

As to `Cc1ccc(S(=O)(=O)OCCN(C)N=O)cc1`, the TD50 was 12.8 mg/kg/day (rat, strain Fischer 344, females, by gavage, site: liver, lesion: hemangiosarcoma, dosed 121 weeks, study length 121 weeks); 7.55 mg/kg/day (rat, strain Fischer 344, females, by gavage, site: liver, lesion: hepatocellular carcinoma, dosed 121 weeks, study length 121 weeks); 22.3 mg/kg/day (rat, strain Fischer 344, females, by gavage, site: liver, lesion: neoplastic nodule, dosed 121 weeks, study length 121 weeks); 3.47 mg/kg/day (rat, strain Fischer 344, females, by gavage, site: liver, lesion: several types, types named in the paper, dosed 121 weeks, study length 121 weeks); 11.8 mg/kg/day (rat, strain Fischer 344, males, by gavage, site: liver, lesion: hemangiosarcoma, dosed 121 weeks, study length 121 weeks); 32.2 mg/kg/day (rat, strain Fischer 344, males, by gavage, site: liver, lesion: hepatocellular carcinoma, dosed 121 weeks, study length 121 weeks). The TD50 is, setting by setting: (rat, strain Fischer 344, males, by gavage, site: liver, lesion: neoplastic nodule, dosed 121 weeks, study length 121 weeks) 12.6 mg/kg/day; (rat, strain Fischer 344, males, by gavage, site: liver, lesion: several types, types named in the paper, dosed 121 weeks, study length 121 weeks) 7.79 mg/kg/day; (rat, strain Fischer 344, males, by gavage, site: pituitary gland, lesion: adenoma, dosed 121 weeks, study length 121 weeks) 11.1 mg/kg/day; (rat, strain Fischer 344, males, by gavage, site: testis, lesion: interstitial-cell tumor, dosed 121 weeks, study length 121 weeks) 11.1 mg/kg/day.

Consider `C#CC1(O)CC[C@H]2[C@@H]3CCC4=CCCC[C@@H]4[C@H]3CC[C@@]21C` (stereo partly drawn), for which the TD50 (dog, strain Beagle, females, in feed, site: mammary gland, lesion: carcinoma, dosed 364 weeks, study length 364 weeks) is 0.58 mg/kg/day.
